Starred links: 1 amine or outer side, 2 acyl side, 3 side chain; linkers in the order of their positions; H or OH if unused. Positions of bridges follow the written chain, without caps; N, C: chain ends. Non-standard residues stand in square brackets, D forms with d. Residues, ends and D or L forms follow the SMILES beside them. TATA = O=C(CC[*:1])N1CN(C(=O)CC[*:2])CN(C(=O)CC[*:3])C1; tBuAla = CC(C)(C)C[C@H](N)C(=O)O; Nle = CCCC[C@H](N)C(=O)O
Tests used:
[1] = system: Nectin-4; test: Cross-species binding of the Nectin-4 Bicycle; set-up: species or system mouse, rat, monkey, and human
[2] = system: CD137; test: Cross-species binding of the CD137 Bicycle; set-up: species or system human and monkey

| species cross-reactivity of binding to CD137 [2] | Structure (SMILES) | species cross-reactivity of binding to Nectin-4 [1] |
| --- | --- | --- |
|  | CSCC[C@@H]1NC(=O)[C@@H]2CSCCC(=O)N3CN(CN(C3)C(=O)CCSC[C@H](N)C(=O)N3CCC[C@H]3C(=O)N[C@@H](Cc3cccc4ccccc34)C(=O)N[C@H](CC(=O)O)C(=O)N2)C(=O)CCSC[C@@H](C(N)=O)NC(=O)[C@H](Cc2c[nH]c3ccccc23)NC(=O)[C@@H]2C[C@@H](O)CN2C(=O)[C@@H]2CCCN2C(=O)[C@H]([C@@H](C)O)NC(=O)[C@H](CO)NC(=O)[C@H](Cc2c[nH]c3ccccc23)NC(=O)[C@H](CC(=O)O)NC(=O)[C@H](CCCCNC(=N)N)NC1=O [BCY8116] | binds to mouse, rat, monkey, and human Nectin-4 |
| binds only to human and monkey CD137 | CCCC[C@@H]1NC(=O)[C@H](Cc2ccc(O)cc2)NC(=O)[C@@H]2CCCN2C(=O)[C@H](CC(=O)O)NC(=O)[C@H](C)NC(=O)[C@H](Cc2ccccc2)NC(=O)[C@@H]2CSCCC(=O)N3CN(CN(C3)C(=O)CCSC[C@@H](C(=O)N[C@@H](C)C(N)=O)NC1=O)C(=O)CCSC[C@H](NC(C)=O)C(=O)N[C@@H](CC(C)(C)C)C(=O)N1CCC[C@H]1C(=O)N[C@@H](CCC(=O)O)C(=O)N[C@H](CCCCN)C(=O)N1CCC[C@H]1C(=O)N[C@@H](Cc1ccc(O)cc1)C(=O)N2 [BCY8928] (Ac-C[tBuAla]PE[dK]PYCFADPY[Nle]CA-NH2; linker 1-8-15 via TATA) |  |
